From patent EP0623605A2, “Substituted piperazines as antiretroviral medicaments” (BAYER AG, priority 1993, dated 1994)
pIC50: −log10 of the molar value.

Target: T1, HIV-Protease (Human immunodeficiency virus type 1 group M subtype B, UniProt P04585)
T1 construct: Gereinigte HIV-Protease wurde mit synthetischem Peptid
Assay: HIV-specific protease enzyme test (purified HIV protease incubated with synthetic Gag cleavage-site peptide, cleavage products analysed by RP-HPLC)
Format: biochemical
Conditions: for inhibition at 240 µg/mL: read-out: % Inhibition bei 240 µg/ml; for pIC50: substance concentration causing 50% inhibition of protease activity, read-out: IC₅₀
Text: Darüber hinaus wurde überraschend gefunden, daß die Verbindungen der allgemeinen Formel (I) eine außerordentlich starke Wirkung gegen Retroviren besitzen. Dies wird mit einem HIV-spezifischen Protease-Enzymtest belegt.
Die Ergebnisse der unten aufgeführten Beispiele wurden nach dem in den folgenden Literaturangaben [vgl. Hansen, J., Billich, S., Schulze, T., Sukrow, S. and Mölling, K. (1988), EMBO Journal, Vol, 7, No. 6, pp. 1785 - 1791] beschriebenen HIV-Testsystem ermittelt: Gereinigte HIV-Protease wurde mit synthetischem Peptid, das eine Schnittstelle im Gag-Precursor-Protein imitiert und eine in vivo-Spaltstelle der HIV-Protease darstellt, inkubiert Die entstandenen Spaltprodukte des synthetischen Peptids wurden über Reverse Phase High Performance Liquid Chromatography (RP-HPLC) analysiert. Die angegebenen IC₅₀-Werte beziehen sich auf die Substanzkonzentration, die unter den oben aufgeführten Testbedingungen eine 50%ige Hemmung der Protease-Aktivität bewirkt. Tabelle 1

Row | Compound | inhibition at 240 µg/mL | pIC50
1 | Cc1ccc(N)cc1OCCN1CCN(CCCC(c2ccc(F)cc2)c2ccc(F)cc2)CC1 [Beispiel 32] | 67% | –
2 | Cc1cc(Cl)ccc1OC(C)CN1CCN(CCCC(c2ccc(F)cc2)c2ccc(F)cc2)CC1 (centres unmarked) [Beispiel 39] | 77% | 6.00
3 | Fc1ccc(C(CCCN2CCN(CCOc3cccc4c3CCCC4)CC2)c2ccc(F)cc2)cc1 [Beispiel 26] | 97% | 6.00
4 | Cc1cc(Cl)ccc1OCCN1CCN(CCCC(c2ccc(F)cc2)c2ccc(F)cc2)CC1 [Beispiel 17] | 86% | 6.30
5 | COc1cccc2c1OC(CN1CCN(CCCC(c3ccc(F)cc3)c3ccc(F)cc3)CC1)CC2 (centres unmarked) [Beispiel 27] | 78% | –
6 | CC(CN1CCN(CCCC(c2ccc(F)cc2)c2ccc(F)cc2)CC1)Oc1ccc(F)cc1F (racemic) [Beispiel 10, 1-[4,4-Bis-(4-fluorphenyl)butyl]-4-[(R/S)-2-(2,4-difluorphenoxy)propyl]piperazin] | 77% | 5.32
7 | C[C@H]1CN(CCOc2ccc(F)cc2F)CCN1CCCC(c1ccc(F)cc1)c1ccc(F)cc1 [Beispiel 13, (S)-1-[4,4-Bis-(4-fluorphenyl)butyl]-2-methyl-4-[2-(2,4-difluorphenoxy)ethyl]piperazin] | 91% | 6.32
8 | Cc1cccc(OC(C)CN2CCN(CCCC(c3ccc(F)cc3)c3ccc(F)cc3)CC2)c1C (racemic) [Beispiel 37] | 61% | –
9 | COc1cc(C)ccc1OCCN1CCN(CCCC(c2ccc(F)cc2)c2ccc(F)cc2)CC1 [Beispiel 22] | 81% | –
10 | CC(CN1CCN(CCCC(c2ccc(F)cc2)c2ccc(F)cc2)CC1)Oc1ccc(C(F)(F)F)cc1 (racemic) [Beispiel 40] | 84% | –
11 | CN(C)c1ccccc1OCCN1CCN(CCCC(c2ccc(F)cc2)c2ccc(F)cc2)CC1 [Beispiel 3, 1-[4,4-Bis-(4-fluorphenyl)butyl]-4-[2-(2-N,N-dimethylaminophenoxy)ethyl]piperazin] | 76% | –
12 | Fc1ccc(C(CCCN2CCN(CCOc3ccc(F)cc3F)CC2)c2ccc(F)cc2)cc1 [Beispiel 15] | 92% | 6.40
13 | COC(=O)c1ccc(OCCN2CCN(CCCC(c3ccc(F)cc3)c3ccc(F)cc3)CC2)c(N(C)C(C)=O)c1 [Beispiel 33] | 56% | –
14 | CCN(C)c1cc(CO)ccc1OCCN1CCN(CCCC(c2ccc(F)cc2)c2ccc(F)cc2)CC1 [Beispiel 34] | 99% | 6.77
15 | CC(CN1CCN(CCCC(c2ccc(F)cc2)c2ccc(F)cc2)CC1)Oc1cccc2c1CCCC2 (centres unmarked) [Beispiel 41] | 95% | 5.68
16 | C[C@H]1CN(CCCC(c2ccc(F)cc2)c2ccc(F)cc2)CCN1CCOc1ccc(F)cc1F [Beispiel 14, (S)-4-[4,4-Bis-(4-fluorphenyl)butyl]-2-methyl-1-[2-(2,4-difluorphenoxy)ethyl]piperazin] | 99% | 5.96
17 | Cc1cccc(OCCN2CCN(CCCC(c3ccc(F)cc3)c3ccc(F)cc3)CC2)c1C [Beispiel 16] | 59% | –
18 | Cc1ccc(N(C)C)cc1OCCN1CCN(CCCC(c2ccc(F)cc2)c2ccc(F)cc2)CC1 [Beispiel 30] | 81% | –
19 | COc1cccc2c1OC(CN1CCN(CCCC(c3ccc(F)cc3)c3ccc(F)cc3)C[C@@H]1C)CC2 (some centres unmarked) [Beispiel 44] | 99% | 4.59
